Molecular target: T1, PAK4 (Homo sapiens, UniProt O96013)
T1 construct: kinase domain
Test: Z'-LYTE FRET peptide kinase assay with recombinant enzyme
Format: biochemical

T1 sequence (O96013 291-591 limits assumed): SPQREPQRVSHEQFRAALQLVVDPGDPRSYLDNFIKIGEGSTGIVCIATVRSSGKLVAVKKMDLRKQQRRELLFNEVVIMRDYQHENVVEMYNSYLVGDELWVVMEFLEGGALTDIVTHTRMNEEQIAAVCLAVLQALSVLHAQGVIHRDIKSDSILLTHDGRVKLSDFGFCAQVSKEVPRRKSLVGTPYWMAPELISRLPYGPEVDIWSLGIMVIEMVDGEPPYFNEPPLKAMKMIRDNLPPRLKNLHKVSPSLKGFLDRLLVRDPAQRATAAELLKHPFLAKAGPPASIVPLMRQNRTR

**Q.** `CCn1c(=O)c(-c2ccc(-c3cncc(C)n3)cc2Cl)cc2cnc(NCCC3CCN(C)CC3)nc21` [FRAX1036] was tested. Which Ki did it give?
**A.** 2.4 µM
